Like-named read-outs stand apart in the source and are kept apart here.
Legend:
[1] = system: HBL1 cells; experiment: CellTiter-Glo assay of cellular ATP levels in HBL1 cells (16 h); assay type: cell-based
Protocol: (§1) Cell Culture Methods: Cells (HBL1, immortalized fibroblasts from a healthy donor, or 293T) were seeded at the numbers indicated in a 12-well plate in 500 ul. […] Human embryonic kidney HEK293T cells and immortalized fibroblasts were maintained in DMEM (Gibco) supplemented with 10% fetal bovine serum (Hyclone), 2 mmol/L L-glutamine, Hepes (Gibco), and 100 U/mL penicillin/streptomycin (Invitrogen). The lymphoma cell line HBL1 was maintained in RPMI (Life Technology) supplemented with 5% fetal bovine serum (Hyclone), 2 mmol/L 1-glutamine, Hepes (Gibco), and 100 U/mL penicillin/streptomycin (Invitrogen). Cells were cultured in incubators maintained at 37° C., with 5% CO2 and 85% humidity.
(§2) Cell-Titer-Glo viability assays: Five μL of cells (2500 cells) from the 12-well plate culture were plated into white 1536-well plates (Greiner, Monroe, NC, 789173-F) in 6 replicates. CellTiter-Glo Luminescent Cell Viability Assay (CTG) (Promega, G7572), 2.5 μL/well reagent was added with a BioRAPTR FRD (Beckman Coulter, Sykesville, MD), plates were incubated in the dark at ambient temperature for 10 min, and luminescence measured with a ViewLux 1430 Ultra HTS (Perkin Elmer, Waltham, MA).

[2] = system: HBL1 cell line; experiment: CellTiter-Glo cell viability (cytotox), HBL1 cell line, 72 hours; assay type: cell-based
Protocol: (§3) CellTiter-Glo viability assays: Five μL of cells (2500 cells) from the 12-well plate culture were plated into white 1536-well plates (Greiner, Monroe, NC, 789173-F) in 6 replicates. CellTiter-Glo Luminescent Cell Viability Assay (CTG) (Promega, G7572), 2.5 μL/well reagent was added with a BioRAPTR FRD (Beckman Coulter, Sykesville, MD), plates were incubated in the dark at ambient temperature for 10 min, and luminescence measured with a ViewLux 1430 Ultra HTS (Perkin Elmer, Waltham, MA).

[3] = target: T1, thymidylate synthase (TS) (Homo sapiens, UniProt P04818); experiment: Western blot of thymidylate synthase levels in HBL1 cells; assay type: cell-based; set-up: Western blot detection of folate-cofactor dependent enzyme levels after treatment of HBL1 cells; endogenous in cells; host or cells: HBL1 lymphoma cell line; conditions: 1 μM, 16 h
T1 sequence (P04818 2-313 limits assumed): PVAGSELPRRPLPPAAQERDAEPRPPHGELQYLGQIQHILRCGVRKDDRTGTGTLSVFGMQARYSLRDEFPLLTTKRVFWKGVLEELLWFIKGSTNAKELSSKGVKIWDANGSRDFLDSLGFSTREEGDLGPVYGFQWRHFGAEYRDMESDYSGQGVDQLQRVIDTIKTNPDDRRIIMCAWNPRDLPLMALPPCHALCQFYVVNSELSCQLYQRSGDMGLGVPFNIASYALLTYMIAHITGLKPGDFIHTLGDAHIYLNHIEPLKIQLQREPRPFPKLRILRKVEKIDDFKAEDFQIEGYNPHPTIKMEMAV

[4] = target: T2, human DHFR-HiBiT fusion protein (Homo sapiens, UniProt P00374); experiment: DHFR-HiBiT assay (high-throughput DHFR abundance) in HBL1 cells; assay type: cell-based; conditions: HBL1, 24 h, read-out: efficacy (%)
T2 construct: expressed in transfected cells; host or cells: HBL1 cells retrovirally infected with pBMN-Ires-Lyt-2 carrying DHFR-HiBiT
T2 sequence (P00374 with tags, fused parts or gaps): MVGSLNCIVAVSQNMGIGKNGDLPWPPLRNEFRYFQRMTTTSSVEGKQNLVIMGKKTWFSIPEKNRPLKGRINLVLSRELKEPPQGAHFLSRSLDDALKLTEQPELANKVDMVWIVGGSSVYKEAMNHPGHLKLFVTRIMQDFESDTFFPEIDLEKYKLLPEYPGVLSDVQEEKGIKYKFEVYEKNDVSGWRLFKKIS
Description: The human DHFR-HiBiT construct was synthetized (Bio Basic) and cloned into the retroviral vector pBMN-Ires-Lyt-2 (provided by G. Nolan, Stanford University, Stanford, CA) which expresses the coding region of mouse CD8a (Lyt-2) using the restriction sites BamHI/XhoI. All constructs were sequenced to validate authenticity. Infected cells were positively selected based on murine CD8a expression using magnetic beads (Miltenyi Biotech).
Cell culture: Human embryonic kidney HEK293T cells were maintained in DMEM (Gibco) supplemented with 10% fetal bovine serum (Hyclone), 2 mmol/L 1-glutamine, HEPES (Gibco) and 100 U/mL penicillin/streptomycin (Invitrogen). The lymphoma cell line HBL1 were maintained in RPMI (Life Technology) supplemented with 5% fetal bovine serum (Hyclone), 2 mmol/L L-glutamine, HEPES (Gibco) and 100 U/mL penicillin/streptomycin (Invitrogen).
Transfection and retroviral infections: Transfections were performed using Lipofectamine 2000 (Invitrogen) according to the manufacturer's protocol. For retroviral infections, viruses were produced in HEK293T cells and used to infect HBL1 cell line. […] Supernatants containing the retrovirus were collected and filtered at 48- and 72-hours post-transfection. HBL1 cells were centrifuged and then resuspended with the retroviral supernatant with 8 μg/ml of polybrene. The cells were spin-infected twice on consecutive days at 2,500 rpm, at RT, for 90 minutes.
Lytic HiBiT Detection: Cells were plated in solid white 1536-well tissue culture plates (Greiner), at the concentration of 2000 cells/well. After treatment, an equal volume of Nano-Glo HiBiT Lytic Reagent (Promega) containing the substrate furimazine and Large BiT (LgBiT) was added to the cells according to the manufacturer's protocol. Cells were incubated for 10 min at room temperature, and luminescence was measured using a Perkin Elmer ViewLux microplate imager with 30 seconds of exposure time.

[5] = target: T3, DHFR (Homo sapiens, UniProt P00374); assay type: cell-based; conditions: HBL1 cells, Western blot
T3 construct: Western blot detection of DHFR levels after treatment of HBL1 cells for 16 h; endogenous in cells; host or cells: HBL1 lymphoma cell line
T3 sequence (P00374 1-187): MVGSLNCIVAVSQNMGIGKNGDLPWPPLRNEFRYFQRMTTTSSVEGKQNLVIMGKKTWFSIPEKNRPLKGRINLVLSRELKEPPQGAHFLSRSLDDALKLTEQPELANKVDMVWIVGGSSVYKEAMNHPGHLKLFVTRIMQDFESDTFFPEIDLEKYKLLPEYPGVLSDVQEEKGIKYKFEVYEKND
Description: Human embryonic kidney HEK293T cells and immortalized fibroblasts were maintained in DMEM (Gibco) supplemented with 10% fetal bovine serum (Hyclone), 2 mmol/L L-glutamine, Hepes (Gibco), and 100 U/mL penicillin/streptomycin (Invitrogen). The lymphoma cell line HBL1 was maintained in RPMI (Life Technology) supplemented with 5% fetal bovine serum (Hyclone), 2 mmol/L 1-glutamine, Hepes (Gibco), and 100 U/mL penicillin/streptomycin (Invitrogen).
Western blotting: Cells at confluence from 12-well plate treatments were washed with PBS and lysed in 75 μL/well NP40 lysis buffer (Cell Signaling), subjected to agitation and centrifugation. Approximately 100 μg of total protein was used per analysis. […] Blots were first incubated with 1:2000 dilution of anti-human DHFR antibody (Abcam, ab124814, host rabbit) for 16 h at 4° C. with shaking, washed 3× with TBS-T and incubated with 1:2000 dilution of anti-human β-actin primary antibody (Cell Signaling, host mouse) for 1 h at ambient temperature with shaking. Blots were then washed 3× with TBS-T and incubated with 1:5000 HRP secondary antibody (Novex, anti-Rabbit IgG raised in Goat, 1 mg/ml) for 1 h at ambient temperature, then washed with 3×TBS-T and developed with Pierce ECL Dura reagent for 5 min. Immunoreactive bands were imaged on a ChemiDoc Imaging System (Bio-Rad) with 20 s chemiluminescence exposure. The molecular weight marker ladder was imaged with colorimetric auto-exposure, and both images merged.

[6] = target: T4, DHFR (Homo sapiens, UniProt P00374); experiment: Western blot for DHFR in MTX-resistant HBL1 cell line; assay type: cell-based; set-up: dose or concentration left out as unconfirmed
T4 construct: endogenous in cells
T4 sequence (P00374 2-187): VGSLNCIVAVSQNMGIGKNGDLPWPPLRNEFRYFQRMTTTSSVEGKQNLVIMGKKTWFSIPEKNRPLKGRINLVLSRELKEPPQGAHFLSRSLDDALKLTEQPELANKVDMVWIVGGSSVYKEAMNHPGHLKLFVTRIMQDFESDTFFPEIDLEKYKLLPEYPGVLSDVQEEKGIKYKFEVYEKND
Protocol: Protein expression analysis: Cells were collected and homogenized in lysis buffer (20 mM Tris-HCl (pH 7.5), 150 mM NaCl, 1 mM Na2EDTA, 1 mM EGTA 1% Triton, 2.5 mM sodium pyrophosphate) with freshly added protease inhibitors (50 mM HEPES, pH 7.6, 150 mM NaCl, 20 mM EDTA, 10 mM sodium orthovanadate (Vanadate, Na3VO4), 100 mM NaF, 2% Triton X-100, 10 μg/ml aprotinin, 10 μg/ml leupeptin, 0.5 mm phenylmethyl sulfonyl fluoride). […] The membrane was immunoblotted with rabbit polyclonal anti-DHFR or mouse anti-β-actin antibodies. The immune complexes were detected by horseradish peroxidase-conjugated secondary antibodies (Thermo Scientific) and developed using a ChemiDoc MP Imager (Bio-Rad). To detect HiBiT-tagged proteins, the membrane was rinsed for 1 h in TBST and then incubated in LgBiT/buffer solution overnight. Nano-Glo® Luciferase Assay Substrate furimazine was added and incubated 5 minutes, and the blot was exposed on the imager.

[7] = target: T3, DHFR; experiment: Western blot detection of DHFR levels in 293T cells; assay type: cell-based; conditions: 16 h at 1 μM
Protocol: as §1
(§4) Western blotting: Cells at confluence from 12-well plate treatments were washed with PBS and lysed in 75 μL/well NP40 lysis buffer (Cell Signaling), subjected to agitation and centrifugation. Approximately 100 μg of total protein was used per analysis. Proteins were sized on a NuPAGE 12% Bis-Tris Gel, 1.0 mm×10 wells, proteins transferred to 0.2 μm nitrocellulose membrane for 60 min followed by blocking with 5% t milk in TBS-T for 1 h at ambient temperature with gentle shaking. […]

[8] = target: T3, DHFR; experiment: Western blot detection of DHFR levels in fibroblasts; assay type: cell-based; conditions: 16 h at 1 μM
Protocol: as §1, §4

[9] = target: T1, thymidylate synthase (TS); experiment: Western blot of thymidylate synthase levels in 293T cells; assay type: cell-based; conditions: 16 h
[10] = target: T1, thymidylate synthase (TS); experiment: Western blot of thymidylate synthase levels in fibroblasts; assay type: cell-based; conditions: 16 h
[11] = system: MTX-resistant HBL1 cell line; assay type: cell-based
Protocol: as §3

[12] = system: fibroblasts; experiment: CellTiter-Glo ATP levels in fibroblasts; assay type: cell-based
Protocol: as §1, §2

[13] = system: 293T cells; experiment: CellTiter-Glo ATP levels in 293T cells; assay type: cell-based, human
Protocol: as §1, §2

[14] = HBL1 cell line, CellTiter-Glo, unit inferred

SMILES	effect on cellular ATP levels (acute cellular toxicity) [1]	IC50 [2, 14] [nM]	effect on TS protein level [3]	Dmax [4] [%]	effect on DHFR protein levels [5]	effect on DHFR protein levels ([5]; listed as MTX-PROTAC 9)	depletion of cellular DHFR [6]	effect on DHFR protein levels [7]	effect on DHFR protein levels [8]	effect on TS protein level [9]	effect on TS protein level [10]	IC50 ([1]; HBL1, 16 h, read-out: IC50 for cellular ATP-depletion) [nM]	IC50 [2] [nM]	cellular toxicity in MTX-resistant HBL1 cell line [11]	effect on ATP levels [12]	effect on ATP levels [13]
CN(Cc1cnc2nc(N)nc(N)c2n1)c1ccc(C(=O)N[C@@H](CCC(=O)NCCOCCOCCOCCNC(=O)COc2cccc3c2C(=O)N(C2CCC(=O)NC2=O)C3=O)C(=O)O)cc1 (stereo partly drawn) [NCGC00685965, (19S)-19-(4-(((2,4-diaminopteridin-6-yl)methyl)(methyl)amino)benzamido)-1-((2-(2,6-dioxopiperidin-3-yl)-1,3-dioxoisoindolin-4-yl)oxy)-2,16-dioxo-6,9,12-trioxa-3,15-diazaicosan-20-oic acid]	did not significantly alter ATP levels even up to 1 μM	5910	slight increase in TS	64.2	remained capable of depleting cellular DHFR	robust DHFR depletion	remained capable of depleting cellular DHFR	–	–	–	–	–	–	–	–	–
CN(Cc1cnc2nc(N)nc(N)c2n1)c1ccc(C(=O)N[C@@H](CCC(=O)NCCCNc2cccc3c2C(=O)N(C2CCC(=O)NC2=O)C3=O)C(=O)O)cc1 (stereo partly drawn) [NCGC00685938, N2-(4-(((2,4-diaminopteridin-6-yl)methyl)(methyl)amino)benzoyl)-N5-(3-((2-(2,6-dioxopiperidin-3-yl)-1,3-dioxoisoindolin-4-yl)amino)propyl)-L-glutamine]	–	1660	slight increase in TS	–	essentially inactive	–	–	essentially inactive	significant degradation of DHFR	no significant change in TS levels	low but detectable increases in TS	–	–	–	–	–
CN(Cc1cnc2nc(N)nc(N)c2n1)c1ccc(C(=O)N[C@@H](CCC(=O)O)C(=O)O)cc1 [MTX, (4-(((2,4-diaminopteridin-6-yl)methyl)(methyl)amino)benzoyl)-L-glutamic acid, reference compound]	significantly depleted ATP levels	–	–	–	–	–	–	–	–	–	–	~200	57.1	greatly decreased	ATP-depleting properties	ATP-depleting properties
